Data set [1] can be described thus: Steady-state plasma pharmacokinetics of intravenous polymyxin B in adult patients (LC-MS/MS, ADAPT 5 compartment fitting). The class given is in vivo. Particulars: human, one-compartment model, 13 adult patients, i.v. every 12 h, median, read-out: best-fit elimination half-life (median) (converted). As to the method: This was a prospective observational study. The study was conducted from March 2016 to March 2018 at two major teaching hospitals in Singapore: Tan Tock Seng Hospital (TTSH) and Singapore General Hospital (SGH). Adult patients (21 years of age or greater) who received intravenous polymyxin B (USP) for the treatment of suspected or confirmed bacterial infections were enrolled. The dose, dosing interval, and infusion duration of polymyxin B administration were as prescribed by the respective attending medical teams. Patients who were pregnant, on dialysis, with burns or spinal cord injury were excluded.
For each subject, four blood samples were obtained serially over one dosing interval at steady state (presumably after the third day of therapy). Since the dosing regimens were not standardized, a sampling scheme spanning the samples over the dosing interval was adopted to accommodate different scenarios. Sample 1 was obtained within 0.5 h prior to the next scheduled dose, sample 2 was obtained 0.5–1 h after the end of drug administration, sample 3 was obtained 3–8 h after the end of drug administration, and sample 4 was obtained within 4 h prior to the next scheduled dose. All samples were specifically timed in relation to drug administration. […] Polymyxin B concentrations in plasma samples were determined using a validated liquid chromatography tandem mass spectrometry method. […]

The conditions of data set [2]: 3 population PK studies, no demographic variables linked to total clearance; cited from earlier work. The source says: In contrast, body weight was linked to total clearance in a study using a two-compartment model. Finally, creatinine clearance had been linked to total clearance of polymyxin B in cystic fibrosis patients. || There were several limitations in our study. Only a limited number of (primarily male) patients were enrolled with standard clinical dosing and dosing frequency. The robustness of our conclusion would be enhanced with a larger sample size and a wider range of dosing regimens. Also, the observed AUC values for comparison were based only 4 data points over a single dosing interval.

The structures appear in SMILES notation. “And” between values parts separate entries of the source, which are not always exact repeats. Equal entries are not always repeated. Positions of bridges follow the written chain, without caps; N, C: chain ends. Non-standard residues stand in square brackets, D forms with d. Residues, ends and D or L forms follow the SMILES beside them. *: point of attachment. X1 = CC[C@H](C)CCCCC(=O)*; Dab = NCC[C@H](N)C(=O)O

A word on the half-life: it is how long it takes for the measured level to halve.

As to `CC[C@H](C)CCCCC(=O)N[C@@H](CCN)C(=O)N[C@H](C(=O)N[C@@H](CCN)C(=O)N[C@H]1CCNC(=O)[C@H]([C@@H](C)O)NC(=O)[C@H](CCN)NC(=O)[C@H](CCN)NC(=O)[C@H](CC(C)C)NC(=O)[C@@H](Cc2ccccc2)NC(=O)[C@H](CCN)NC1=O)[C@@H](C)O` [polymyxin B] (X1-[Dab]T[Dab][Dab][Dab][dF]L[Dab][Dab]T; lactam 4-C), the half-life in data set [1] was 408 min. Also, in data set [2], the “estimates of clearance (total clearance) in population pharmacokinetic studies” value was 2.4 L/h and 2.5 L/h and 2.6 L/h.

Source of the values: article PMC7698783, “Performance of Population Pharmacokinetic Models in Predicting Polymyxin B Exposures” (Microorganisms, 2020).
